Data on 1 molecule can be found in patent US9205073B2, “Method for treating virus infection using derivative of aniline” (CHINA MEDICAL UNIVERSITY, priority 2014, dated 2015).

The structures appear in SMILES notation.

One data set has as its system JEV T1P1. The data set is described as follows: Viral plaque test, JEV T1P1 replication in BHK-21 cells. It counts as cell-based, Japanese encephalitis virus. Particulars: treated for 48 or 72 hours. The protocol: BHK-21 cells and/or TE671cells were separately cultured in a 24-well culture plate, with an initial density of 3×10^4 per well, and with 1 ml of 2% FBS-containing MEM medium per well. The cells were incubated in an incubator (37° C., 5% CO2) overnight, and the medium was removed until the cells adhered to the plate. Then, fresh 2% FBS-containing MEM medium was simultaneously added into each well of the culture plate. The cells were infected with a JEV T1P1 virus strain, wherein the amount of JEV T1P1 used to infect BHK-21 cells was a multiplicity of infection (M.O.I.)=0.1, and the amount of JEV T1P1 used to infect TE671 cells was M.O.I.=0.05. Different concentrations of compound 1 (final concentrations were 0, 2.5, 25 and 125 μM, respectively) were added into different wells. The culture plate was placed into an incubator (37° C., 5% CO2) and maintained therein. […]
BHK-21 cells were cultured in a 6-well culture plate at an initial density of 3×10^5 per well with 2 ml of 2% FBS-containing MEM medium per well. […] The cells were washed with clear water, and then the viral plaques were counted to calculate the virus titer.

The subject of another data set is EV71. As to the kind of experiment: Enterovirus infection-induced cytopathic effect / cell survival in RD cells with interferon. It counts as cell-based, enterovirus type 71. The note with it: for Cell survival rate: 36 hours. The protocol:
The RD cells were cultured in a 24-well culture plate at an initial density of 3×10^4 per well with 1 ml of 2% FBS-containing MEM medium per well. The cells were incubated in an incubator (37° C., 5% CO2) overnight. The medium was removed until the cells adhered to the plate. 1 ml of fresh 2% FBS-containing MEM medium was simultaneously added into each well. The RD cells were infected with an EV71 virus strain (M.O.I.=0.1). […] The RD cells were incubated in an incubator (37° C., 5% CO2) for 36 hours, and then their morphology was observed by photography. In addition, 200 μl of culture medium supernatant was collected from each well and stored at −80° C. for conducting the viral plaque test of Example 12.
On the technique in general: Damage to the host cells serves as the signal in cytopathic effect assays.

Data set [1] deals with JAK-STAT, AkT-mTOR and ERK-CREB signaling pathway-related proteins. As to the kind of experiment: Western blot of signaling pathway phosphorylation in JEV T1P1-infected TE671 cells. Format: cell-based. Particulars: 36 hours, 2.5-250 μM. The protocol:
TE671cells were cultured in a 6-well culture plate at an initial density of 3×10^5 per well with 2 ml of 2% FBS-containing MEM medium per well. The cells were incubated in an incubator (37° C., 5% CO2) overnight. The medium was removed until the cells adhered to the plate. 1 ml of fresh 2% FBS-containing MEM medium was simultaneously added into each well. The cells were infected with JEV T1P1virus strain (M.O.I.=0.05). Different concentrations of compound 1 (the final concentrations were 0, 2.5, 25, 125 and 250 μM, respectively) were added into different wells. The cells were incubated in an incubator (37° C., 5% CO2) for 36 hours. The supernatant was removed, and the TE671 cells were washed with PBS. The PBS was removed, and 150 μl Trypsin-EDTA was added into each well. The cells were incubated in an incubator at 37° C. for 3 minutes. Then, 1 ml MEM medium was added into each well to neutralize EDTA, and the cells were separately collected into 15 ml tubes and precipitated by centrifugation (2000 rpm, 3 minutes). The supernatants were removed. The cells were resuspended with 1 ml PBS per tube, transferred into 1.5 ml microtubes respectively, and precipitated by centrifugation (2000 rpm, 3 minutes). The supernatants were removed and 100 μl radioimmunoprecipitation buffer (RIPA buffer) was added into each well. […]
The above protein samples were analyzed by protein electrophoresis. […]
In general terms: A western blot detects proteins with antibodies after separation by electrophoresis.

For the molecule `CCOC(=O)C1=C(Nc2cc(C)cc(C)c2)OCC1=O` [Compound 1, ethyl 2-(3′,5′-dimethylanilino)-4-oxo-4,5-dihydrofuran-3-carboxylate], in the data set on JEV T1P1, the “replication of JEV T1P1 (virus titer)” value is reported as “significantly decreased”. In addition, the Cell survival rate turned out to be 46.9% in the data set with EV71 (EV71 M.O.I.=0.1, IFN-β 100 unit/ml + Compound 1 2.5 μM); 55.86% in the data set with EV71 (EV71 M.O.I.=0.1, IFN-β 100 unit/ml + Compound 1 25 μM); 83.3% in the data set on EV71 (EV71 M.O.I.=0.1, IFN-β 100 unit/ml + Compound 1 125 μM); 86.85% in the data set on EV71 (no EV71, no IFN-β, Compound 1 125 μM). The EV71-induced cytopathic effect entry in the data set with EV71 (infected 36 hours, combination of compound 1 and 100 units/ml of IFN-β) is recorded as “effectively inhibited”. Moreover, the “phosphorylation levels of JAK-STAT, AkT-mTOR and ERK-CREB signaling pathway-related proteins” value in data set [1] is reported as “increased in a concentration dependent manner”.
